Tests used:
soybean = assay: Test B pre/postemergence soybean; format: in vivo, Glycine max
How it was run: (§1)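 Herbicidal effect was estimated by eye on a ten-point control scale after plants spent twelve to sixteen days in a greenhouse following soil or foliar treatment. Foliar sprays targeted plants at one to four leaves; all doses were formulated in a non-phytotoxic solvent with surfactant.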

purple nutsedge = assay: Test B pre/postemergence purple nutsedge; format: in vivo, Cyperus rotundus
How it was run: as §1

velvetleaf = assay: Test B pre/postemergence velvetleaf; format: in vivo, Abutilon theophrasti
How it was run: as §1

bedstraw = assay: Test B pre/postemergence bedstraw; format: in vivo, Galium aparine
How it was run: as §1

cocklebur = assay: Test B pre/postemergence cocklebur; format: in vivo, Xanthium strumarium
How it was run: as §1

crabgrass = assay: Test B pre/postemergence crabgrass; format: in vivo, Digitaria sanguinalis
How it was run: as §1

giant foxtail = assay: Test B pre/postemergence giant foxtail; format: in vivo, Setaria faberii
How it was run: as §1

blackgrass = assay: Test B pre/postemergence blackgrass; format: in vivo, Alopecurus myosuroides
How it was run: as §1

wheat = assay: Test B pre/postemergence wheat; format: in vivo, Triticum aestivum
How it was run: as §1

surinam grass = assay: Test B pre/postemergence surinam grass; format: in vivo, Brachiaria decumbens
How it was run: as §1

pigweed = assay: Test B pre/postemergence pigweed; format: in vivo, Amaranthus retroflexus
How it was run: as §1

morningglory = assay: Test B pre/postemergence morningglory; format: in vivo, Ipomoea hederacea
How it was run: as §1

sugar beet = assay: Test B pre/postemergence sugar beet; format: in vivo, Beta vulgaris
How it was run: as §1

rape = assay: Test B pre/postemergence rape; format: in vivo, Brassica napus
How it was run: as §1

wild oat = assay: Test B pre/postemergence wild oat; format: in vivo, Avena fatua
How it was run: as §1

corn = assay: Test B pre/postemergence corn; format: in vivo, Zea mays
How it was run: as §1

[1] = Postemergence, Rate 62 g/ha, scale of 0 to 10, 0 is no effect, 10 is complete control
[2] = Postemergence, Rate 125 g/ha, scale 0 to 10, 0 is no effect, 10 is complete control
[3] = Postemergence, Rate 500 g/ha, scale 0 to 10, 0 is no effect, 10 is complete control
[4] = Preemergence, Rate 62 g/ha, scale of 0 to 10 where 0 is no effect and 10 is complete control
[5] = Preemergence, Rate 125 g/ha, scale 0 to 10, 0 is no effect, 10 is complete control
[6] = Preemergence, Rate 500 g/ha, scale of 0 to 10 where 0 is no effect and 10 is complete control
[7] = Preemergence, Rate 250 g/ha, scale 0 to 10, 0 is no effect, 10 is complete control
[8] = Preemergence, Rate 500 g/ha, scale 0 to 10, 0 is no effect, 10 is complete control
[9] = Postemergence, Rate 250 g/ha, scale 0 to 10
[10] = Rate 250 g/ha, Postemergence, scale of 0 to 10 where 0 is no effect and 10 is complete control

CC(=O)C(C)n1c(=O)on(C(=O)N(c2ccc(F)cc2F)C(C)C)c1=O (stereo not shown) [Compound 517]
Soybean plant response rating (soybean; [1]): 0 | Soybean plant response rating (soybean; [2]): 6 | Plant response rating, Soybean (soybean; [3]): 8 | Plant response rating, Soybean (soybean; [4]): 0 | Soybean plant response rating (soybean; [5]): 0 | Soybean plant response rating (soybean; [6]): 0 | Nutsedge plant response rating (purple nutsedge; [1]): 0 | Nutsedge plant response rating (purple nutsedge; [2]): 0 | Plant response rating, Nutsedge (purple nutsedge; [4]): 0 | Nutsedge plant response rating (purple nutsedge; [5]): 0 | Nutsedge plant response rating (purple nutsedge; [6]): 0 | Velvetleaf plant response rating (velvetleaf; [1]): 0 | Velvetleaf plant response rating (velvetleaf; [2]): 0 | Plant response rating, Velvetleaf (velvetleaf; [3]): 6 | Plant response rating, Velvetleaf (velvetleaf; [4]): 0 | Velvetleaf plant response rating (velvetleaf; [5]): 0 | Velvetleaf plant response rating (velvetleaf; [6]): 3 | Bedstraw plant response rating (bedstraw; [1]): 4 | Bedstraw plant response rating (bedstraw; [2]): 7 | Plant response rating, Bedstraw (bedstraw; [4]): 0 | Bedstraw plant response rating (bedstraw; [5]): 0 | Bedstraw plant response rating (bedstraw; [7]): 0 | Bedstraw plant response rating (bedstraw; [8]): 0 | Cocklebur plant response rating (cocklebur; [1]): 0 | Cocklebur plant response rating (cocklebur; [2]): 0 | Cocklebur plant response rating (cocklebur; [9]): 0 | Plant response rating, Cocklebur (cocklebur; [3]): 4 | Plant response rating, Cocklebur (cocklebur; [4]): 0 | Cocklebur plant response rating (cocklebur; [5]): 0 | Cocklebur plant response rating (cocklebur; [7]): 0 | Cocklebur plant response rating (cocklebur; [6]): 0 | Crabgrass plant response rating (crabgrass; [1]): 7 | Crabgrass plant response rating (crabgrass; [2]): 7 | Crabgrass plant response rating (crabgrass; [9]): 8 | Plant response rating, Crabgrass (crabgrass; [3]): 9 | Plant response rating, Crabgrass (crabgrass; [4]): 4 | Crabgrass plant response rating (crabgrass; [5]): 4 | Crabgrass plant response rating (crabgrass; [6]): 7 | Giant foxtail plant response rating (giant foxtail; [1]): 8 | Giant foxtail plant response rating (giant foxtail; [2]): 8 | Plant response rating, Giant foxtail (giant foxtail; [3]): 9 | Plant response rating, Giant foxtail (giant foxtail; [4]): 2 | Giant foxtail plant response rating (giant foxtail; [5]): 3 | Giant foxtail plant response rating (giant foxtail; [6]): 10 | Blackgrass plant response rating (blackgrass; [1]): 0 | Blackgrass plant response rating (blackgrass; [2]): 3 | Blackgrass plant response rating (blackgrass; [9]): 6 | Plant response rating, Blackgrass (blackgrass; [3]): 6 | Plant response rating, Blackgrass (blackgrass; [4]): 2 | Blackgrass plant response rating (blackgrass; [5]): 2 | Blackgrass plant response rating (blackgrass; [7]): 4 | Blackgrass plant response rating (blackgrass; [6]): 4 | Wheat plant response rating (wheat; [1]): 0 | Wheat plant response rating (wheat; [2]): 0 | Plant response rating, Wheat (wheat; [3]): 4 | Plant response rating, Wheat (wheat; [4]): 0 | Wheat plant response rating (wheat; [5]): 0 | Wheat plant response rating (wheat; [6]): 6 | B. signalgrass plant response rating (surinam grass; [1]): 0 | B. signalgrass plant response rating (surinam grass; [2]): 4 | B. signalgrass plant response rating (surinam grass; Postemergence, Rate 250 g/ha, scale 0 to 10, 0 no effect, 10 complete control): 6 | Plant response rating, B. signalgrass (surinam grass; [3]): 8 | Plant response rating, B. signalgrass (surinam grass; [4]): 0 | B. signalgrass plant response rating (surinam grass; [5]): 0 | B. signalgrass plant response rating (surinam grass; [7]): 0 | B. signalgrass plant response rating (surinam grass; [8]): 0 | Redroot pigweed plant response rating (pigweed; [1]): 0 | Redroot pigweed plant response rating (pigweed; [2]): 4 | Plant response rating, Redroot pigweed (pigweed; [3]): 7 | Plant response rating, Redroot pigweed (pigweed; [4]): 8 | Redroot pigweed plant response rating (pigweed; [5]): 9 | Redroot pigweed plant response rating (pigweed; [6]): 10 | Morningglory plant response rating (morningglory; [1]): 2 | Morningglory plant response rating (morningglory; [2]): 2 | Plant response rating, Morningglory (morningglory; [3]): 2 | Plant response rating, Morningglory (morningglory; [4]): 0 | Morningglory plant response rating (morningglory; [5]): 0 | Morningglory plant response rating (morningglory; [6]): 0 | Sugarbeets plant response rating (sugar beet; [1]): 0 | Sugarbeets plant response rating (sugar beet; [2]): 0 | Plant response rating, Sugarbeets (sugar beet; [3]): 3 | Plant response rating, Sugarbeets (sugar beet; [4]): 0 | Sugarbeets plant response rating (sugar beet; [5]): 0 | Sugarbeets plant response rating (sugar beet; [6]): 5 | Rape plant response rating (rape; [1]): 0 | Rape plant response rating (rape; [2]): 0 | Plant response rating, Rape (rape; [3]): 4 | Plant response rating, Rape (rape; [4]): 0 | Rape plant response rating (rape; [5]): 0 | Rape plant response rating (rape; [6]): 4 | Wild oats plant response rating (wild oat; [1]): 0 | Wild oats plant response rating (wild oat; [2]): 0 | Plant response rating, Wild oats (wild oat; [3]): 3 | Plant response rating, Wild oats (wild oat; [4]): 4 | Wild oats plant response rating (wild oat; [5]): 4 | Wild oats plant response rating (wild oat; [6]): 5 | Corn plant response rating (corn; [1]): 0 | Corn plant response rating (corn; [2]): 0 | Corn plant response rating (corn; [9]): 0 | Plant response rating, Corn (corn; [3]): 4 | Plant response rating, Corn (corn; [4]): 0 | Corn plant response rating (corn; [5]): 0 | Corn plant response rating (corn; [6]): 3

CC(C)N(C(=O)n1oc(=O)n(CCC(F)(F)F)c1=O)c1ccc(F)cc1F [Compound 525]
Soybean plant response rating (soybean; [1]): 3 | Soybean plant response rating (soybean; [2]): 5 | Plant response rating, Soybean (soybean; [4]): 0 | Soybean plant response rating (soybean; [5]): 0 | Soybean plant response rating (0 to 10 scale) (soybean; Preemergence, Rate 250 g/ha): 0 | Soybean plant response rating (soybean; [6]): 0 | Plant response rating, Soybean (soybean; [10]): 5 | Nutsedge plant response rating (purple nutsedge; [1]): 0 | Nutsedge plant response rating (purple nutsedge; [2]): 0 | Plant response rating, Nutsedge (purple nutsedge; [3]): 5 | Plant response rating, Nutsedge (purple nutsedge; [4]): 0 | Nutsedge plant response rating (purple nutsedge; [5]): 0 | Nutsedge plant response rating (0 to 10 scale) (purple nutsedge; Preemergence, Rate 250 g/ha): 0 | Nutsedge plant response rating (purple nutsedge; [6]): 0 | Plant response rating, Nutsedge (purple nutsedge; [10]): 5 | Velvetleaf plant response rating (velvetleaf; [1]): 2 | Velvetleaf plant response rating (velvetleaf; [2]): 3 | Plant response rating, Velvetleaf (velvetleaf; [3]): 3 | Plant response rating, Velvetleaf (velvetleaf; [4]): 2 | Velvetleaf plant response rating (velvetleaf; [5]): 3 | Velvetleaf plant response rating (0 to 10 scale) (velvetleaf; Preemergence, Rate 250 g/ha): 3 | Velvetleaf plant response rating (velvetleaf; [6]): 4 | Plant response rating, Velvetleaf (velvetleaf; [10]): 3 | Plant response rating, Bedstraw (bedstraw; [4]): 0 | Bedstraw plant response rating (bedstraw; [5]): 0 | Bedstraw plant response rating (0 to 10 scale) (bedstraw; Preemergence, Rate 250 g/ha): 0 | Bedstraw plant response rating (bedstraw; [6]): 0 | Cocklebur plant response rating (cocklebur; [1]): 2 | Cocklebur plant response rating (cocklebur; [2]): 2 | Plant response rating, Cocklebur (cocklebur; [3]): 2 | Plant response rating, Cocklebur (cocklebur; [4]): 0 | Cocklebur plant response rating (cocklebur; [5]): 0 | Cocklebur plant response rating (0 to 10 scale) (cocklebur; Preemergence, Rate 250 g/ha): 0 | Plant response rating, Cocklebur (cocklebur; [10]): 2 | Crabgrass plant response rating (crabgrass; [1]): 6 | Plant response rating, Crabgrass (crabgrass; [3]): 9 | Plant response rating, Crabgrass (crabgrass; [4]): 9 | Crabgrass plant response rating (crabgrass; [5]): 9 | Crabgrass plant response rating (0 to 10 scale) (crabgrass; Preemergence, Rate 250 g/ha): 10 | Crabgrass plant response rating (crabgrass; [6]): 10 | Plant response rating, Crabgrass (crabgrass; [10]): 9 | Giant foxtail plant response rating (giant foxtail; [1]): 5 | Giant foxtail plant response rating (giant foxtail; [2]): 8 | Plant response rating, Giant foxtail (giant foxtail; [3]): 9 | Plant response rating, Giant foxtail (giant foxtail; [4]): 9 | Giant foxtail plant response rating (giant foxtail; [5]): 10 | Giant foxtail plant response rating (0 to 10 scale) (giant foxtail; Preemergence, Rate 250 g/ha): 10 | Giant foxtail plant response rating (giant foxtail; [6]): 10 | Plant response rating, Giant foxtail (giant foxtail; [10]): 9 | Blackgrass plant response rating (blackgrass; [1]): 4 | Blackgrass plant response rating (blackgrass; [2]): 6 | Plant response rating, Blackgrass (blackgrass; [3]): 8 | Plant response rating, Blackgrass (blackgrass; [4]): 8 | Blackgrass plant response rating (blackgrass; [5]): 7 | Blackgrass plant response rating (blackgrass; [6]): 8 | Plant response rating, Blackgrass (blackgrass; [10]): 8 | Wheat plant response rating (wheat; [1]): 0 | Wheat plant response rating (wheat; [2]): 2 | Plant response rating, Wheat (wheat; [3]): 5 | Plant response rating, Wheat (wheat; [4]): 3 | Wheat plant response rating (wheat; [6]): 3 | Plant response rating, Wheat (wheat; [10]): 5 | B. signalgrass plant response rating (surinam grass; [1]): 0 | B. signalgrass plant response rating (surinam grass; [2]): 2 | Plant response rating, B. signalgrass (surinam grass; [3]): 8 | Plant response rating, B. signalgrass (surinam grass; [4]): 9 | B. signalgrass plant response rating (surinam grass; [6]): 9 | Plant response rating, B. signalgrass (surinam grass; [10]): 2 | Redroot pigweed plant response rating (pigweed; [1]): 2 | Redroot pigweed plant response rating (pigweed; [2]): 2 | Plant response rating, Redroot pigweed (pigweed; [3]): 8 | Plant response rating, Redroot pigweed (pigweed; [4]): 0 | Redroot pigweed plant response rating (pigweed; [5]): 0 | Redroot pigweed plant response rating (pigweed; [6]): 3 | Plant response rating, Redroot pigweed (pigweed; [10]): 9 | Morningglory plant response rating (morningglory; [1]): 2 | Morningglory plant response rating (morningglory; [2]): 2 | Plant response rating, Morningglory (morningglory; [3]): 3 | Plant response rating, Morningglory (morningglory; [4]): 0 | Morningglory plant response rating (morningglory; [5]): 0 | Morningglory plant response rating (0 to 10 scale) (morningglory; Preemergence, Rate 250 g/ha): 0 | Morningglory plant response rating (morningglory; [6]): 6 | Plant response rating, Morningglory (morningglory; [10]): 2 | Sugarbeets plant response rating (sugar beet; [1]): 0 | Sugarbeets plant response rating (sugar beet; [2]): 0 | Plant response rating, Sugarbeets (sugar beet; [3]): 8 | Plant response rating, Sugarbeets (sugar beet; [4]): 5 | Sugarbeets plant response rating (sugar beet; [5]): 8 | Sugarbeets plant response rating (sugar beet; [6]): 9 | Plant response rating, Sugarbeets (sugar beet; [10]): 6 | Rape plant response rating (rape; [1]): 0 | Rape plant response rating (rape; [2]): 0 | Plant response rating, Rape (rape; [3]): 8 | Plant response rating, Rape (rape; [4]): 0 | Rape plant response rating (rape; [5]): 0 | Rape plant response rating (rape; [6]): 4 | Plant response rating, Rape (rape; [10]): 3 | Wild oats plant response rating (wild oat; [1]): 0 | Wild oats plant response rating (wild oat; [2]): 2 | Plant response rating, Wild oats (wild oat; [3]): 6 | Plant response rating, Wild oats (wild oat; [4]): 5 | Wild oats plant response rating (wild oat; [6]): 8 | Plant response rating, Wild oats (wild oat; [10]): 4 | Corn plant response rating (corn; [1]): 0 | Corn plant response rating (corn; [2]): 0 | Plant response rating, Corn (corn; [3]): 2 | Plant response rating, Corn (corn; [4]): 0 | Corn plant response rating (corn; [5]): 0 | Corn plant response rating (0 to 10 scale) (corn; Preemergence, Rate 250 g/ha): 4 | Corn plant response rating (corn; [6]): 8 | Plant response rating, Corn (corn; [10]): 2
